From the supplement of paper PMC10307832

Columns and labels:
Experiment in all cases: relative viability (nuclei count vs DMSO), 5 days (fraction); higher = more cells survive
BAM7 + Crizotinib = compound: CCOC1=CC=CC=C1N=NC2=C(NN(C2=O)C3=NC(=CS3)C4=CC=CC=C4)C [BAM7] + C[C@@H](Oc1cc(-c2cnn(C3CCNCC3)c2)cnc1N)c1c(Cl)ccc(F)c1Cl [Crizotinib] (partner 1 µM)
Outline: (§1)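 Values are medians from duplicate plates. Each reflects relative viability, defined as the nuclei count of treated wells over that of vehicle wells. Lung cancer cell lines in 1536-well plates were pin-tool dosed one day after seeding with one drug alone or with a fixed anchor-drug dose plus five library-drug doses (not always all listed) in √10 steps, then fixed, stained and imaged at 4× after 5 days.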

BAM7 + Linsitinib = compound: CCOC1=CC=CC=C1N=NC2=C(NN(C2=O)C3=NC(=CS3)C4=CC=CC=C4)C [BAM7] + C[C@]1(O)C[C@@H](c2nc(-c3ccc4ccc(-c5ccccc5)nc4c3)c3c(N)nccn32)C1 [Linsitinib] (partner 1 µM)
Outline: as §1

BAM7 + Pictilisib = compound: CCOC1=CC=CC=C1N=NC2=C(NN(C2=O)C3=NC(=CS3)C4=CC=CC=C4)C [BAM7] + CS(=O)(=O)N1CCN(Cc2cc3nc(-c4cccc5[nH]ncc45)nc(N4CCOCC4)c3s2)CC1 [Pictilisib] (partner 1 µM)
Outline: as §1

BAM7 + Tozasertib = compound: CCOC1=CC=CC=C1N=NC2=C(NN(C2=O)C3=NC(=CS3)C4=CC=CC=C4)C [BAM7] + Cc1cc(Nc2cc(N3CCN(C)CC3)nc(Sc3ccc(NC(=O)C4CC4)cc3)n2)n[nH]1 [Tozasertib] (partner 0.1 µM)
Outline: as §1

BAM7 + OSI-027 = compound: CCOC1=CC=CC=C1N=NC2=C(NN(C2=O)C3=NC(=CS3)C4=CC=CC=C4)C [BAM7] + COc1cccc2cc(-c3nc([C@H]4CC[C@H](C(=O)O)CC4)n4ncnc(N)c34)[nH]c12 [OSI-027] (partner 0.5 µM)
Outline: as §1

| Cell Line | relative viability (BAM7 + Crizotinib; first compound 0.5 µM) | relative viability (BAM7 + Crizotinib; first compound 5 µM) | relative viability (BAM7 + Crizotinib; first compound 15.81 µM) | relative viability (BAM7 + Crizotinib; first compound 50 µM) | relative viability (BAM7 + Linsitinib; first compound 0.5 µM) | relative viability (BAM7 + Linsitinib; first compound 5 µM) | relative viability (BAM7 + Linsitinib; first compound 15.81 µM) | relative viability (BAM7 + Linsitinib; first compound 50 µM) | relative viability (BAM7 + Pictilisib; first compound 0.5 µM) | relative viability (BAM7 + Pictilisib; first compound 5 µM) | relative viability (BAM7 + Pictilisib; first compound 15.81 µM) | relative viability (BAM7 + Pictilisib; first compound 50 µM) | relative viability (BAM7 + Tozasertib; first compound 0.5 µM) | relative viability (BAM7 + Tozasertib; first compound 5 µM) | relative viability (BAM7 + Tozasertib; first compound 15.81 µM) | relative viability (BAM7 + Tozasertib; first compound 50 µM) | relative viability (BAM7 + OSI-027; first compound 0.5 µM) | relative viability (BAM7 + OSI-027; first compound 5 µM) | relative viability (BAM7 + OSI-027; first compound 15.81 µM) | relative viability (BAM7 + OSI-027; first compound 50 µM) |
| --- | --- | --- | --- | --- | --- | --- | --- | --- | --- | --- | --- | --- | --- | --- | --- | --- | --- | --- | --- | --- |
| NCI-H1915 | 0.892 | 0.918 | 0.874 | 0.891 | 1.08 | 1.2 | 1.08 | 1.1 | 1.01 | 1.15 | 0.898 | 1.04 | 0.443 | 0.4 | 0.405 | 0.399 | 0.687 | 0.674 | 0.6 | 0.625 |
| NCI-H1944 | 0.984 | 1.15 | 0.839 | 0.821 | 1.3 | 1.36 | 1.13 | 1.07 | 0.344 | 0.384 | 0.332 | 0.346 | 0.25 | 0.253 | 0.257 | 0.257 | 0.39 | 0.439 | 0.434 | 0.445 |
| NCI-H1975 | 0.792 | 0.773 |  | 0.824 | 0.847 | 0.981 |  | 0.898 | 0.29 | 0.259 |  | 0.283 | 0.41 | 0.512 | 0.465 | 0.512 | 0.496 | 0.525 | 0.465 | 0.532 |
| NCI-H1993 | 0.751 | 0.843 | 0.771 | 0.826 | 0.688 | 0.724 | 0.701 | 0.742 | 0.82 | 0.896 | 0.778 | 0.879 | 0.564 | 0.639 | 0.582 | 0.505 | 0.537 | 0.538 | 0.553 | 0.568 |
| NCI-H2009 | 1.12 | 1.05 | 0.973 | 0.987 | 1.27 | 1.2 | 1.15 | 1.16 | 0.899 | 0.827 | 0.846 | 0.854 | 0.832 | 0.763 | 0.62 | 0.608 | 0.68 | 0.758 | 0.581 | 0.689 |
| NCI-H2023 | 0.631 | 0.59 | 0.454 | 0.524 | 0.657 | 0.689 | 0.64 | 0.67 | 0.277 | 0.245 | 0.3 | 0.297 | 0.234 | 0.161 | 0.125 | 0.177 | 0.357 | 0.347 | 0.297 | 0.506 |
| NCI-H2085 | 0.829 | 0.956 | 0.75 | 0.859 | 0.968 | 1.03 | 0.821 | 0.911 | 0.388 | 0.43 | 0.365 | 0.439 | 0.608 | 0.496 | 0.401 | 0.567 | 0.733 | 0.571 | 0.52 | 0.678 |
| NCI-H2087 | 0.887 | 0.916 | 0.856 | 0.7 | 0.974 | 1.27 | 0.893 | 0.903 | 1.09 | 1.1 | 0.989 | 0.893 | 0.227 | 0.244 | 0.211 | 0.205 | 0.818 | 0.552 | 0.441 | 0.559 |
